Laboratory results reported in US20230263808A1 (UNIVERSITY OF FLORIDA RESEARCH FOUNDATION, INCORPORATED, priority 2020, published 2023).
“Also recorded” adds a separate entry of the source.

Columns and labels:
pAKT in C2C12 myotubes = experiment: Insulin-induced pAKT (Thr308) In-Cell Western; assay type: cell-based, mouse
Method: (§1) A) C2C12 myotubes were assayed for chymotrypsin-like proteasomal activity. […] C) Quantitation of the ICW in panel B. D) ICW for surface expression of Glut4 on L6 myotubes. E) ICW for insulin-induced incorporation of puromycin into C2C12 myotube surface proteins. F-G) High-content imaging and analysis of C2C12 myoblasts stained with a Mitotracker dye. H) Assay reproducibility from screening 22 compounds on two separate occasions. The Pearson correlation coefficient, r, and its associated p-value is indicated.
A) Pearson correlations were calculated between the indicated variables. The different lines indicate statistically significant correlations at the corresponding p-value thresholds. Solid lines indicate positive correlations, dashed lines indicate negative correlations. […]
Physiologically, the effects of GCs on protein balance and Glut4 translocation vary in vivo depending upon the stressor. […] To assess protein degradation, we measured chymotrypsin-like proteasomal activity (FIG. 2, A). The activating phosphorylation of AKT at Thr308 (pAKT) was measured using a LI-COR In-Cell Western assay (FIG. 2, B and C). The rate-limiting step in insulin-mediated glucose uptake is the translocation of the glucose transporter, Glut4, to the surface membrane, which we also measured by In-Cell Western without permeabilizing the myotubes (FIG. 2, D). […]

[1] = Lactate-tolerance test (rate of glucose production); assay type: in vivo, C57BL/6 male mice; settings: after overnight fast; 10 mg/kg Dex or SR16024, 50 mg/kg SR11466
Excerpt: A) The effects of all tested compounds on IL-1β-induced IL-6 production (x-axes) versus GR interaction with the indicated peptides. B-C) The effects of all tested compounds on the indicated GC-regulated phenotypes (x-axes) versus GR interaction with the CHD9_1023 and CENPR_1 peptides (y-axes). D-F) COC plots. Each point represents the Pearson correlation coefficient, r, between a distinct gene expression or GR-peptide interaction assay with assays indicated on the x and y axes. G) The effects of all tested compounds on IL-1β-induced IL-6 production (y-axes) versus insulin-induced protein synthesis. […] IL-β-induced IL-6 production by A549 cells treated with the indicated compounds was compared by AlphaLISA. […] Mice in panel K were subjected to a lactate-tolerance test (LTT).
We were also interested in whether the compounds would show dissociation between Glut4 translocation in skeletal muscle and gluconeogenesis in the liver, but enhanced glucose production is typically studied after weeks or months of GC treatment. However, we reasoned that an overnight fast should enable detection of effects after a single dose. […] Thus, profiling effects of GCs in the physiological context of nutrient deprivation allowed the discovery of two new types of glucocorticoids with improved profiles in skeletal muscle.

LPS-induced TNFα = experiment: LPS-induced plasma TNFα levels in mice; assay type: in vivo, C57BL/6 male mice; settings: mice pretreated with ligand
Excerpt: (§2) A) Correlation of correlation (COC) plots where each point represents the Pearson correlation coefficient, r, between a distinct gene expression or GR-peptide interaction assay with assays indicated on the x and y axes. B) The effects of all tested compounds on IL-1β-induced secretion of IL-6 (y axes) and GC-regulated phenotypes indicated on the x axes. C) The effects of all tested compounds on IL-1β-induced secretion of IL-6 (y axis) and bone mineralization (x axis). D) IL-1β-induced IL-6 production by A549 cells treated with 10 μM of the indicated compounds was compared by AlphaLISA. E-H) Myoblasts were assayed as described in FIG. 8. I) Representative myoblasts imaged during the mitochondrial potential assay. J) Plasma TNFα levels of C57BL/6 male mice treated pretreated with the indicated ligands. K) Changes in lean mass of mice in panel J were determined by whole-body NMR after an additional 18 h LPS treatment. Data shown are mean+SEM.

[2] = test system: mitochondrial activity, pAKT, protein synthesis, and bone; experiment: Compound profiling platform, overall profile (FIG. 15); assay type: cell-based; settings: for overall profile in compound profiling (anabolic effects, agonism): 10 uM
Method: N=4-6 from two different experiments. […] D) Mitochondrial activity was measured in myoblasts using high content imaging with mitotracker dye after 24 treatment. New amino acid incorporation was measured with LICOR in cell western for puromycin (SunSet assay). […] N=3, mean+SEM. […] N=4, mean+SEM, 2-way ANOVA.
(§3) To avoid such effects on myogenesis, we switched myoblasts to differentiation media, and then on day 4, added 10 μM cytarabine, a chemotherapy agent that kills dividing cells, and then adding GCs on day 6 or 7 and completing assays in day 8 (FIG. 8).
(§4) Physiologically, the effects of GCs on protein balance and Glut4 translocation vary in vivo depending upon the stressor. For example, GCs mediate atrophy in response to fasting but not exercise. […] To assess protein degradation, we measured chymotrypsin-like proteasomal activity (FIG. 2, A). The activating phosphorylation of AKT at Thr308 (pAKT) was measured using a LI-COR In-Cell Western assay (FIG. 2, B and C). The rate-limiting step in insulin-mediated glucose uptake is the translocation of the glucose transporter, Glut4, to the surface membrane, which we also measured by In-Cell Western without permeabilizing the myotubes (FIG. 2, D). Surface Sensing of Translation (SUnSET) (Schmidt et al., Nat Methods 6, 275-277, 2009) assay was used to measure protein synthesis by In-Cell Western, following treatment of myotubes with a low dose of puromycin, which incorporates into translating proteins, but at a low enough level to provide a readout for global protein synthesis (FIG. 2, E). Lastly, we developed a high-content imaging assay in myoblasts stained with a MitoTracker dye, so that individual mitochondrial networks could be visualized with adequate resolution to quantitate area, segmentation, branching, and fluorescence intensity which is a measure of mitochondrial membrane potential (ψm).
Additional studies were performed to assess activities of the various compounds identified from the previous profiling.

L6 myotubes = experiment: Glut4 translocation to the myotube surface (In-Cell Western); assay type: cell-based, rat
Method: as §1
(§5) C2C12 myocytes were used in all assays, except in the Glut4 translocation assay where L6 rat myocytes were used. ICW, In-Cell Western. Also see Methods.
as §4

[3] = Loss of lean mass after a larger dose of LPS (whole-body NMR); assay type: in vivo, C57BL/6 male mice; settings: additional 18 h LPS treatment
Excerpt: as §2

myoblasts = experiment: Myoblast proliferation and fusion into myotubes; assay type: cell-based
C2C12 myotubes [4] = experiment: Protein degradation: chymotrypsin-like proteasomal activity in C2C12 myotubes; assay type: cell-based, mouse
Method: as §1, §5, §3
as §4, with “Lastly, we developed a high-content imaging assay in myoblasts stained with a MitoTracker dye, so that individual mitochondrial networks could be visualized with adequate resolution to quantitate area, segmentation, branching, and fluorescence intensity which is a measure of mitochondrial membrane potential (ψm).” left out

[5] = background statement; cited from earlier work
C2C12 myoblasts = experiment: Mitochondrial potential, high-content imaging with MitoTracker dye; assay type: cell-based, mouse
Method: as §1
(§6) A) Each dot represents the effects of a compound in the indicated assays at 10 uM. N=4-6 from two different experiments. […] C) SR11466 is efficacious at inhibiting IL-6 secretion from A549 cells. C-E). […] D) Mitochondrial activity was measured in myoblasts using high content imaging with mitotracker dye after 24 treatment. New amino acid incorporation was measured with LICOR in cell western for puromycin (SunSet assay). E) top, MMTV-luciferase reporter data. N=3, mean+SEM. Bottom, Mineralization of primary human OBs was assayed after two weeks of differentiation from MSC and two weeks of mineralization. N=4, mean+SEM, 2-way ANOVA.
as §4

C2C12 myotubes [6] = experiment: Insulin-induced protein synthesis (SUnSET, In-Cell Western) in C2C12 myotubes; assay type: cell-based, mouse; settings: fasting conditions
Method: as §1, §5, §3, §4

[7] = test system: IL-1β-induced IL-6 secretion by A549 lung cells; experiment: IL-1β-induced IL-6 secretion by A549 lung cells (AlphaLISA); assay type: cell-based; settings: 10 μM
Excerpt: as §2
In order to understand whether effects on skeletal muscle could be dissociated from anti-inflammatory effects of the ligands, we profiled the compounds for suppression of IL1β-induced IL-6 secretion by A549 lung cells. Examining the correlations between assays can be used to identify dissociated assays that selectively correlate with a given phenotype, predicting discovery of dissociated ligands. […] We call this a correlation of correlations (COC) plot. […] These include recruitment of NCOA2 and NCOA3 peptides, coactivators that we and others have shown to be required for GC-dependent suppression of inflammation in different cell types (FIG. 11, A). However, for the mitochondrial assay and IL-6, there are dissociated assays shown by points that are far out from the regression line in the COC plot (FIG. 7, A). For example, interaction of CHD9 with GR predicted mitochondrial activity but not Glut4 translocation (FIG. 11, B), while interaction with the CENPR peptide selectively predicted effects on Glut4 translocation (FIG. 11, C). […] Assays that correlated with effects of the ligands on GR nuclear translocation were also highly correlated with Glut4 translocation and suppression of IL-6 secretion (FIG. 11, F). Therefore, the COC curves provide a way to identify common signaling mechanisms between different GR target tissues and signaling pathways.

GILZ mRNA = experiment: GILZ gene expression; assay type: cell-based
[8] = test system: primary human osteoblasts; experiment: Osteoblast mineralization (Alizarin Red S) from mesenchymal stem cells; assay type: cell-based
Method: as §6
As a further test for dissociation, the compounds were profiled in primary human osteoblasts for effects on osteogenesis during 4 weeks of differentiation from mesenchymal stem cells. Specifically, osteoblast mineralization was examined as follows. Human mesenchymal stem cells (MSCs) at passage 2 were maintained in growth media consisted of alpha-MEM (Life Technologies, 32561-037) supplemented with 17% FBS (Sigma-Aldrich, 12303C), 2 mM L-glutarnine (Life Technologies, 25030-081), and 100 units/mL penicillin/streptomycin (Life Technologies, 15140-122). Effect of glucocorticoid receptor modulators on osteogenic differentiation of MSCs was quantified using Alizarin Red S (Sigma-Aldrich, A5533) staining. Briefly, human MSCs were seeded in the middle 8 wells of 48-well plates at plating density of 10,000 cells per well. PBS (Life Technologies, 10010-031) was added to surrounding wells to reduce evaporation of media in the middle wells during prolonged incubation. 24 h later, growth media was replaced by osteogenic induction media (OIM) consisted of low-glucose DMEM (Life Technologies, 10567-014) supplemented with 10% FBS (Sigma-Aldrich. 12303C), 50 μg/ml L-ascorbic-2-phosphate (Sigma-Aldrich, A8960), 10 mM β-glyceroiphosphate (Sigma-Aldrich, G9891), and glucocorticoid modulators. OIM containing test compounds was replaced every week. At the end of 2 weeks, monolayers were washed with PBS (Life Technologies, 10010-031), incubated in Richard-Allan Scientific™ Neutral Buffered Formalin (10%) (Thermo Scientific, 5725) for 2 h at room temperature, washed with deionized water and stained with Alizarin Red S for 30 min at room temperature. Monolayers were then rinsed 3×with deionized water until clear, stain was then extracted with 10% (w/v) cetylpyridinium chloride (Sigma-Aldrich, C0732) in 10 mM sodium phosphate (Sigma, S5011 and S5136), pH 7.0 for 15 min at room temperature and the amount of extracted dye quantified spectroscopically at 562 nm. Spectroscopic analysis performed using a synergy™ NEO HTS Multi-Mode Microplate Reader (BioTek Instruments, Inc.).

C[C@@H]1C[C@H]2[C@@H]3CCC4=CC(=O)C=C[C@]4(C)[C@@]3(F)[C@@H](O)C[C@]2(C)[C@@]1(O)C(=O)CO [Dex, dexamethasone, reference compound]
insulin-mediated pAKT after 1 hr of treatment (pAKT in C2C12 myotubes; 1 hr treatment): not inhibited
potency for modulating pAKT (pAKT in C2C12 myotubes; fasting conditions): low nM
rate of glucose production in lactate tolerance test [1]: increased the rate of glucose production
LPS-induced TNFα levels in the blood (LPS-induced TNFα): strongly suppressed
dosing at which effects on the insulin signaling pathway are shown ([2]; myotubes, serum starvation, insulin challenge, cytarabine treatment): 1 to 10 nM
potency for modulating Glut4 translocation (L6 myotubes; fasting conditions): low nM
loss of lean mass following a larger dose of LPS [3]: significantly worsened
fusion into myotubes (myoblasts): promotes fusion
myoblast proliferation (myoblasts): strongly inhibits
effect on protein degradation (proteasomal) (C2C12 myotubes [4]): stimulated protein degradation
concentration required for effects on protein balance in vitro [5]: 50 to 100 µM
Dex concentration sufficient to produce the maximal loss of mitochondrial oxidative capacity (C2C12 myoblasts): 1 nM
effect on mitochondrial activity / potential (C2C12 myoblasts): strongly inhibited; also recorded: reduced
potency for modulating protein synthesis (C2C12 myotubes [6]): low nM

Cc1ncccc1NC(=O)c1ccc2c(c1)CC[C@@H]1C[C@@](O)(C(F)(F)F)CC[C@@]21Cc1ccccc1 [PF802, reference compound]
overall profile in compound profiling (anabolic effects, agonism) [2]: partial agonist
effect on Glut4 translocation (L6 myotubes): slightly improved compared to Dex
effect on protein degradation (proteasomal) (C2C12 myotubes [4]): stimulated protein degradation as strongly as Dex
effect on mitochondrial activity / potential (C2C12 myoblasts): strongly inhibited

CC#CC1(O)CCC2C3CCc4cc(C(=O)Nc5cccnc5C)ccc4C3C(OCc3ccccc3)CC21C (stereo not drawn) [SR11469]
inhibition of IL-1β-induced IL-6 secretion (anti-inflammatory) [7]: weakly anti-inflammatory
overall profile in compound profiling (anabolic effects, agonism) [2]: more antagonistic SGRMs; also recorded: anabolic effects
GILZ gene expression (GILZ mRNA): not activating GILZ

CC#CC1(O)CCC2C3CCc4cc(C(=O)Nc5ccc(C)nc5)ccc4C3C(O)CC21C (stereo not drawn) [SR15419]
overall profile in compound profiling (anabolic effects, agonism) [2]: anabolic effects

CC#CC1(O)CCC2C3CCc4cc(C(=O)Nc5ncccc5C)ccc4C3C(O)CC21C (stereo not drawn) [SR15438]
overall profile in compound profiling (anabolic effects, agonism) [2]: anabolic effects

CC#CC1(O)CCC2C3CCc4cc(C(=O)Nc5cccnc5C)ccc4C3C(OC)CC21C (stereo not drawn) [SR15960]
inhibition of IL-1β-induced IL-6 secretion (anti-inflammatory) [7]: fully inhibiting IL-6 secretion

CC#CC1(O)CCC2C3CCc4cc(C(=O)Nc5cccnc5C)ccc4C3C(OCC)CC21C (stereo not drawn) [SR15961]
inhibition of IL-1β-induced IL-6 secretion (anti-inflammatory) [7]: fully inhibiting IL-6 secretion

CC#CC1(O)CCC2C3CCc4cc(C(=O)Nc5cccnc5C)ccc4C3C(OCc3cccc(Cl)c3)CC21C (stereo not drawn) [SR16023]
overall profile in compound profiling (anabolic effects, agonism) [2]: anabolic effects

C[C@]12CC[C@H]3[C@@H](CCC4=CC(=O)CC[C@@]43C)[C@@H]1CC[C@@H]2O [testosterone, reference compound]
effect on mineralization (bone) [8]: no effect
